Source: patent US11919886B2, “4,9-dioxo-4,9-dihydronaphtho[2,3-B]furan-3-carboxamide derivatives and uses thereof for treating proliferative diseases and infectious diseases” (Academia Sinica, priority 2016, dated 2024)
Values after ≈ are worked out from the molar mass of the structure shown. Like-named read-outs stand apart in the source and are kept apart here.

Key:
MCM2 = target: T1, MCM2 (Homo sapiens, UniProt P49736); assay: Chromatin-bound MCM2 after double thymidine block (immunoblotting); assay type: cell-based; conditions: H1975, 4.5 hour, 6 hour and 9 hour treatment
T1 construct: The MCM2 proteins were pulled down by incubating the H1975 lysate with compound 1-conjugated magnetic beads; endogenous in cells; host or cells: H1975
Description: To explore whether Compound 1-induced protein degradation also interfered with the DNA binding ability of MCM2, HI 975 cells were synchronized using a double thymidine block followed by release with DMSO or compound 1 treatment for 3 to 9 hours. Exemplary results are shown in Panel (D) of FIG. 3. Then, the cells were harvested to obtain the chromatin-bound fraction, and MCM2 was detected by immunoblotting.

Staphylococcus aureus = assay: MIC, broth micro dilution method; assay type: cell-based
[1] = tested on: Streptococcus gallolyticus subsp. gallolyticus; assay: MIC, broth micro dilution method; assay type: cell-based; conditions: strain ATCC43143, S. bovis
[2] = tested on: Streptococcus infantarius subsp. coli; assay: MIC, broth micro dilution method; assay type: cell-based; conditions: strain ATCC BAA-103, S. bovis
Enterococcus faecalis = assay: MIC, broth micro dilution method; assay type: cell-based
Escherichia coli = assay: MIC, broth micro dilution method; assay type: cell-based
Pseudomonas aeruginosa = assay: MIC, broth micro dilution method; assay type: cell-based
Shigella sonnei = assay: MIC, broth micro dilution method; assay type: cell-based
[3] = tested on: CL1-0 (human lung adenocarcinoma cells, EGFR wild type and resistant to gefitinib); assay: SRB cytotoxicity assay, CL1-0; conditions: CL1-0, 72 h
[4] = tested on: PC9/IR (human lung adenocarcinoma cells, EGFR del 19 mutation but resistant to gefitinib); assay: SRB cytotoxicity assay, PC9/IR; conditions: 72 h

T1 sequence (P49736 whole entry): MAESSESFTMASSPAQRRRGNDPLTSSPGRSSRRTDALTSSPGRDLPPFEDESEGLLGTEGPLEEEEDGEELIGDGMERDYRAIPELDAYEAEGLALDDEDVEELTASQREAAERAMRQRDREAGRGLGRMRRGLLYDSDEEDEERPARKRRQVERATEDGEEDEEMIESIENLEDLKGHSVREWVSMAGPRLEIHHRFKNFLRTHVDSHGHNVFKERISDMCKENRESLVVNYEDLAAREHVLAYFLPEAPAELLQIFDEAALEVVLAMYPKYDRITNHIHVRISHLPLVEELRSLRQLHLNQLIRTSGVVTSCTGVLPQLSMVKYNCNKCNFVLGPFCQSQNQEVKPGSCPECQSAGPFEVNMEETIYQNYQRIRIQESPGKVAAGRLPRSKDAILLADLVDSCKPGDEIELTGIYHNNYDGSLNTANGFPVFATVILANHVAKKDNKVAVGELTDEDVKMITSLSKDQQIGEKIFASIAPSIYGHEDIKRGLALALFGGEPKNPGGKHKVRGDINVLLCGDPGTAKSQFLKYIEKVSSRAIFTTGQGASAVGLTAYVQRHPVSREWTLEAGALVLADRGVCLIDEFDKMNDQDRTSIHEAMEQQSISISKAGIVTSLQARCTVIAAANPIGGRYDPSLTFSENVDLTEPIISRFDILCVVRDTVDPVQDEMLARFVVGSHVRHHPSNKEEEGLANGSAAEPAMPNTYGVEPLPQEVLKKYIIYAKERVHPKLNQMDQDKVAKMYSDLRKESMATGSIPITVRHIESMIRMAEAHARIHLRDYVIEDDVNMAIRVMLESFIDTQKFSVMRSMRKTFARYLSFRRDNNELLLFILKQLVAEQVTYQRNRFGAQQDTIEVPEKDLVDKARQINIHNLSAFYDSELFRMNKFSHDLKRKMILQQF

In the case of `Cc1oc2c(c1C(=O)NCCCn1ccnc1)C(=O)c1ccccc1C2=O` [Compound 1, N-(3-(1H-Imidazol-1-yl)propyl)-2-methyl-4,9-dioxo-4,9-dihydronaphtho [2,3-b]furan-3-carboxamide], the “chromatin-bound form of MCM2 vs DMSO control” value (MCM2) is reported as “significantly reduced”, the MIC (Staphylococcus aureus; ATCC 2921 / MSSA, read-out: MIC (μg/ml) 100%, strain ATCC2921 3, MSSA) is reported as 4 µg/mL (≈ 11 µM) and the MIC (Staphylococcus aureus; ATCC 2921 / MSSA, strain ATCC2921 3, MSSA, read-out: MIC (μg/ml) 50%) is reported as 1 µg/mL (≈ 2.75 µM). The MIC (Staphylococcus aureus; ATCC 12598 / MSSA, read-out: MIC (μg/ml) 100%, strain ATCC12598, MSSA) was 4 µg/mL (≈ 11 µM), the MIC (Staphylococcus aureus; ATCC 12598 / MSSA, strain ATCC12598, MSSA, read-out: MIC (μg/ml) 50%) was 0.5 µg/mL (≈ 1.38 µM) and the MIC (Staphylococcus aureus; ATCC 25923 / MSSA, read-out: MIC (μg/ml) 100%, strain ATCC25923, MSSA) was 4 µg/mL (≈ 11 µM). It also gave an MIC (Staphylococcus aureus; ATCC 25923 / MSSA, strain ATCC25923, MSSA, read-out: MIC (μg/ml) 50%) of 2 µg/mL (≈ 5.5 µM), an MIC (Staphylococcus aureus; ATCC 33592 / MRSA, read-out: MIC (μg/ml) 100%, strain ATCC33592, MRSA (SCCmec III)) of 1 µg/mL (≈ 2.75 µM) and an MIC (Staphylococcus aureus; ATCC 33592 / MRSA, strain ATCC33592, MRSA (SCCmec III), read-out: MIC (μg/ml) 50%) of 0.5 µg/mL (≈ 1.38 µM). It also gave an MIC (Staphylococcus aureus; ATCC 49476 / MRSA, read-out: MIC (μg/ml) 100%, strain ATCC49476, MRSA (SCCmec III)) of 1 µg/mL (≈ 2.75 µM), an MIC (Staphylococcus aureus; ATCC 49476 / MRSA, strain ATCC49476, MRSA (SCCmec III), read-out: MIC (μg/ml) 50%) of 0.5 µg/mL (≈ 1.38 µM) and an MIC (Staphylococcus aureus; MRSA, range over MRSA strains, broth micro dilution, read-out: MIC) of 1 to 4 µg/mL (≈ 2.75 to 11 µM). It also gave an MIC (Staphylococcus aureus; MRSA, read-out: MIC (μg/ml) 100%, strain NTUH-1-2868, MRSA (SCCmec III, ST239, FA-R), clinical isolate) of 1 µg/mL (≈ 2.75 µM), an MIC (Staphylococcus aureus; MRSA, read-out: MIC (μg/ml) 100%, strain NTUH-104-2, MRSA (SCCmec VT, ST45), clinical isolate) of 1 µg/mL (≈ 2.75 µM) and an MIC (Staphylococcus aureus; MRSA, read-out: MIC (μg/ml) 100%, strain NTUH-406-2, MRSA (SCCmec IV, spa type t008), clinical isolate) of 4 µg/mL (≈ 11 µM). It also gave an MIC (Staphylococcus aureus; MRSA, read-out: MIC (μg/ml) 100%, strain NTUH-560, MRSA (SCCmec II, GM-S), clinical isolate) of 4 µg/mL (≈ 11 µM), an MIC (Staphylococcus aureus; MRSA, read-out: MIC (μg/ml) 100%, strain NTUH-2102, MRSA (SCCmec II, ST5, FA-S), clinical isolate) of 4 µg/mL (≈ 11 µM) and an MIC (Staphylococcus aureus; MRSA, read-out: MIC (μg/ml) 100%, strain NTUH-2417, MRSA (SCCmec III, SXT-S), clinical isolate) of 1 µg/mL (≈ 2.75 µM). The MIC (Staphylococcus aureus; MRSA, read-out: MIC (μg/ml) 100%, strain NTUH-2643, MRSA (SCCmec IV, spa type to 15), clinical isolate) was 4 µg/mL (≈ 11 µM), the MIC (Staphylococcus aureus; MRSA, read-out: MIC (μg/ml) 100%, strain NTUH-2967, MRSA (SCCmec VT, ST1), clinical isolate) was 4 µg/mL (≈ 11 µM) and the MIC (Staphylococcus aureus; MRSA, read-out: MIC (μg/ml) 100%, strain NTUH-4400, MRSA (SCCmec II, ST5, FA-R), clinical isolate) was 2 µg/mL (≈ 5.5 µM). The MIC (Staphylococcus aureus; MRSA, read-out: MIC (μg/ml) 100%, strain NTUH-4578, MRSA (SCCmec IV, ST59), clinical isolate) was 4 µg/mL (≈ 11 µM), the MIC (Staphylococcus aureus; MRSA, read-out: MIC (μg/ml) 100%, strain NTUH-8038, MRSA (SCCmec IV, spa type t189), clinical isolate) was 4 µg/mL (≈ 11 µM) and the MIC (Staphylococcus aureus; MRSA, read-out: MIC (μg/ml) 100%, strain NTUH-9383, MRSA (SCCmec III, ST239, FA-R), clinical isolate) was 1 µg/mL (≈ 2.75 µM). It also gave an MIC (Staphylococcus aureus; MRSA, read-out: MIC (μg/ml) 100%, strain PM1, MRSA (SCCmec VT, ST59), clinical isolate) of 4 µg/mL (≈ 11 µM), an MIC (Staphylococcus aureus; MRSA, read-out: MIC (μg/ml) 100%, strain TSHR17, MRSA (SCCmec VT)) of 4 µg/mL (≈ 11 µM) and an MIC (Staphylococcus aureus; MRSA, strain NTUH-1-2868, MRSA (SCCmec III, ST239, FA-R), clinical isolate, read-out: MIC (μg/ml) 50%) of 0.5 µg/mL (≈ 1.38 µM). For the same molecule, the MIC (Staphylococcus aureus; MRSA, strain NTUH-104-2, MRSA (SCCmec VT, ST45), clinical isolate, read-out: MIC (μg/ml) 50%) was 0.5 µg/mL (≈ 1.38 µM), the MIC (Staphylococcus aureus; MRSA, strain NTUH-406-2, MRSA (SCCmec IV, spa type t008), clinical isolate, read-out: MIC (μg/ml) 50%) was 0.5 µg/mL (≈ 1.38 µM) and the MIC (Staphylococcus aureus; MRSA, strain NTUH-560, MRSA (SCCmec II, GM-S), clinical isolate, read-out: MIC (μg/ml) 50%) was 1 µg/mL (≈ 2.75 µM). The MIC (Staphylococcus aureus; MRSA, strain NTUH-2102, MRSA (SCCmec II, ST5, FA-S), clinical isolate, read-out: MIC (μg/ml) 50%) was 1 µg/mL (≈ 2.75 µM), the MIC (Staphylococcus aureus; MRSA, strain NTUH-2417, MRSA (SCCmec III, SXT-S), clinical isolate, read-out: MIC (μg/ml) 50%) was 0.5 µg/mL (≈ 1.38 µM) and the MIC (Staphylococcus aureus; MRSA, strain NTUH-2643, MRSA (SCCmec IV, spa type to 15), clinical isolate, read-out: MIC (μg/ml) 50%) was 1 µg/mL (≈ 2.75 µM). For the same molecule, the MIC (Staphylococcus aureus; MRSA, strain NTUH-2967, MRSA (SCCmec VT, ST1), clinical isolate, read-out: MIC (μg/ml) 50%) was 1 µg/mL (≈ 2.75 µM), the MIC (Staphylococcus aureus; MRSA, strain NTUH-4400, MRSA (SCCmec II, ST5, FA-R), clinical isolate, read-out: MIC (μg/ml) 50%) was 1 µg/mL (≈ 2.75 µM) and the MIC (Staphylococcus aureus; MRSA, strain NTUH-4578, MRSA (SCCmec IV, ST59), clinical isolate, read-out: MIC (μg/ml) 50%) was 1 µg/mL (≈ 2.75 µM). The MIC (Staphylococcus aureus; MRSA, strain NTUH-8038, MRSA (SCCmec IV, spa type t189), clinical isolate, read-out: MIC (μg/ml) 50%) was 1 µg/mL (≈ 2.75 µM), the MIC (Staphylococcus aureus; MRSA, strain NTUH-9383, MRSA (SCCmec III, ST239, FA-R), clinical isolate, read-out: MIC (μg/ml) 50%) was 0.5 µg/mL (≈ 1.38 µM) and the MIC (Staphylococcus aureus; MRSA, strain PM1, MRSA (SCCmec VT, ST59), clinical isolate, read-out: MIC (μg/ml) 50%) was 1 µg/mL (≈ 2.75 µM). It also gave an MIC (Staphylococcus aureus; MRSA, strain TSHR17, MRSA (SCCmec VT), read-out: MIC (μg/ml) 50%) of 0.5 µg/mL (≈ 1.38 µM), an MIC ([1]; read-out: MIC (μg/ml) 100%) of 4 µg/mL (≈ 11 µM) and an MIC ([1]; read-out: MIC (μg/ml) 50%) of 2 µg/mL (≈ 5.5 µM). It also gave an MIC ([2]; read-out: MIC (μg/ml) 100%) of 4 µg/mL (≈ 11 µM), an MIC ([2]; read-out: MIC (μg/ml) 50%) of 2 µg/mL (≈ 5.5 µM) and an MIC (Enterococcus faecalis; read-out: MIC (μg/ml) 100%, strain ATCC19433) of 32 µg/mL (≈ 88.1 µM). For the same molecule, the MIC (Enterococcus faecalis; strain ATCC19433, read-out: MIC (μg/ml) 50%) was 16 µg/mL (≈ 44 µM), the MIC (Escherichia coli; read-out: MIC (μg/ml) 100%, strain ATCC33625, gram negative) was over 32 µg/mL and the MIC (Escherichia coli; strain ATCC33625, gram negative, read-out: MIC (μg/ml) 50%) was over 32 µg/mL. The MIC (Pseudomonas aeruginosa; read-out: MIC (μg/ml) 100%, strain ATCC27853, gram negative) was over 32 µg/mL, the MIC (Pseudomonas aeruginosa; strain ATCC27853, gram negative, read-out: MIC (μg/ml) 50%) was over 32 µg/mL and the MIC (Shigella sonnei; read-out: MIC (μg/ml) 100%, strain ATCC9290, gram negative) was over 32 µg/mL. It also gave an MIC (Shigella sonnei; strain ATCC9290, gram negative, read-out: MIC (μg/ml) 50%) of over 32 µg/mL, an IC50 [3] of 123 nM and an IC50 [4] of 48 nM.
